In patent US7709471B2, “Compounds” (AstraZeneca AB, priority 2006, dated 2010) one finds IC50 data, which are given here for 24 compounds.

Broadly, the IC50 is the concentration that gives 50% inhibition.

In this test the test system is human colon tumour cell line HT29. Put plainly: Cellular Assay (phosphohistone H3 Ser10 mitotic marker, HT29). The note with it: read-out: IC50 (cellular assay, phosphohistone H3). It counts as cell-based.

Like-named read-outs stand apart in the source and are kept apart here. Some results are limits rather than exact numbers.

Description: Chromosome condensation in mitosis is accompanied by phosphorylation of histone H3 on serine 10.
After 24 hours, cells were fixed in 3.7% (v/v) formaldehyde then permeabilised and blocked for 10 minutes in 100 μl 0.5% (v/v) Triton X-100, 1% (w/v) bovine serum albumin (BSA) in phosphate buffered saline (PBS). […] The raw assay data were analysed by non-linear regression analysis and used to determine an IC50 value for each compound.

Consider `COc1cc(C(=O)NCC(C)(C)CN2CCCC2)ccc1Nc1ncc2c(n1)N(C1CCCCC1)CC1(CC1)C(=O)N2C` [Example 440, 4-(9′-cyclohexyl-5′-methyl-6′-oxo-5′,6′,8′,9′-tetrahydrospiro[cyclopropane-1,7′-pyrimido[5,4-b][1,4]diazepine]-2′-ylamino)-N-(2,2-dimethyl-3-pyrrolidin-1-yl-propyl)-3-methoxy-benzamide], for which the IC50 (HT-29, 24 h, HT29 cells) was less than 0.3 µM.

Regarding `CCN1CC[C@@H](NC(=O)c2ccc(Nc3ncc4c(n3)N(C3CCCCC3)CC3(CC3)C(=O)N4C)c(OC)c2)C1` [Example 441, 4-(9′-cyclohexyl-5′-methyl-6′-oxo-5′,6′,8′,9′-tetrahydrospiro[cyclopropane-1,7′-pyrimido[5,4-b][1,4]diazepine]-2′-ylamino)-N-[(3R)-1-ethylpyrrolidin-3-yl]-3-methoxy-benzamide], the IC50 (HT-29, 24 h, HT29 cells) is less than 0.3 µM.

On to `CCOc1cc(C(=O)N[C@@H]2CCN(C)C2)ccc1Nc1ncc2c(n1)N(C(C)C)CC(C)(C)C(=O)N2C` [Example 293, 3-ethoxy-N-[(3R)-1-methylpyrrolidin-3-yl]-4-[(4,4,6-trimethyl-5-oxo-2-propan-2-yl-2,6,9,11-tetrazabicyclo[5.4.0]undeca-7,9,11-trien-10-yl)amino]benzamide], for which the half-maximal inhibitory concentration (IC50) (HT-29, 24 h, HT29 cells) is less than 1 µM.

For the compound `CN1C(=O)CCN(C2CCCCC2)c2nc(Nc3cc(F)c(C(=O)NCCN4CCCC4)cc3F)ncc21` [Example 416, 4-[(2-cyclohexyl-6-methyl-5-oxo-2,6,9,11-tetrazabicyclo[5.4.0]undeca-7,9,11-trien-10-yl)amino]-2,5-difluoro-N-(2-pyrrolidin-1-ylethyl)benzamide], the IC50 (HT-29, 24 h, HT29 cells) is less than 1 µM.

Turning to `COc1cc(C(=O)N[C@@H]2CCN(C)C2)c(F)cc1Nc1ncc2c(n1)N(C(C)C)CC(C)(C)C(=O)N2C` [Example 292, 2-fluoro-5-methoxy-N-[(3R)-1-methylpyrrolidin-3-yl]-4-[(4,4,6-trimethyl-5-oxo-2-propan-2-yl-2,6,9,11-tetrazabicyclo[5.4.0]undeca-7,9,11-trien-10-yl)amino]benzamide], the IC50 (HT-29, 24 h, HT29 cells) was less than 0.3 µM.

Consider `COc1cc(C(=O)NCC(C)(C)CN2CCCC2)ccc1Nc1ncc2c(n1)N(C1CCCC1)CC1(CC1)C(=O)N2C` [Example 401, 4-(9′-cyclopentyl-5′-methyl-6′-oxo-5′,6′,8′,9′-tetrahydrospiro[cyclopropane-1,7′-pyrimido[5,4-b][1,4]diazepine]-2′-ylamino)-N-(2,2-dimethyl-3-pyrrolidin-1-yl-propyl)-3-methoxy-benzamide], for which the IC50 (HT-29, 24 h, HT29 cells) was less than 0.3 µM.

For `COc1cc(C(=O)NCCN2CCCC2)c(F)cc1Nc1ncc2c(n1)N(C1CCCCC1)CCC(=O)N2C` [Example 425, 4-[(2-cyclohexyl-6-methyl-5-oxo-2,6,9,11-tetrazabicyclo[5.4.0]undeca-7,9,11-trien-10-yl)amino]-2-fluoro-5-methoxy-N-(2-pyrrolidin-1-ylethyl)benzamide], for the setting “HT-29, 24 h, HT29 cells”, the IC50 is less than 0.3 µM.

On to `CCOc1cc(C(=O)NC2CCN(C)CC2)c(F)cc1Nc1ncc2c(n1)N(C(C)C)CC(C)(C)C(=O)N2C` [Example 296, 5-ethoxy-2-fluoro-N-(1-methyl-4-piperidyl)-4-[(4,4,6-trimethyl-5-oxo-2-propan-2-yl-2,6,9,11-tetrazabicyclo[5.4.0]undeca-7,9,11-trien-10-yl)amino]benzamide], for which the IC50 (HT-29, 24 h, HT29 cells) is less than 30 µM.

Take `COc1cc(C(=O)N[C@@H]2CCN(C)C2)c(F)cc1Nc1ncc2c(n1)N(C1CCCC1)CC(C)(C)C(=O)N2C` [Example 364, 4-[(2-cyclopentyl-4,4,6-trimethyl-5-oxo-2,6,9,11-tetrazabicyclo[5.4.0]undeca-7,9,11-trien-10-yl)amino]-2-fluoro-5-methoxy-N-[(3R)-1-methylpyrrolidin-3-yl]benzamide]: the IC50 (HT-29, 24 h, HT29 cells) is less than 0.3 µM.

`CN1CC[C@@H](NC(=O)c2cc(F)c(Nc3ncc4c(n3)N(C3CCCC3)CC3(CC3)C(=O)N4C)cc2F)C1` [Example 400, 4-(9′-cyclopentyl-5′-methyl-6′-oxo-5′,6′,8′,9′-tetrahydrospiro[cyclopropane-1,7′-pyrimido[5,4-b][1,4]diazepine]-2′-ylamino)-2,5-difluoro-N-[(3R)-1-methylpyrrolidin-3-yl]benzamide]: for the setting “HT-29, 24 h, HT29 cells”, the IC50 is less than 0.3 µM.

As to `CN1C(=O)CCN(C2CCCC2)c2nc(Nc3cc(F)c(C(=O)NCCN4CCCC4)cc3F)ncc21` [Example 335, 4-[(2-cyclopentyl-6-methyl-5-oxo-2,6,9,11-tetrazabicyclo[5.4.0]undeca-7,9,11-trien-10-yl)amino]-2,5-difluoro-N-(2-pyrrolidin-1-ylethyl)benzamide], the IC50 (HT-29, 24 h, HT29 cells) was less than 0.3 µM.

On to `CCOc1cc(C(=O)NC2CCN(C)CC2)c(F)cc1Nc1ncc2c(n1)N(C(C)C)CCC(=O)N2C` [Example 287, 5-ethoxy-2-fluoro-4-[(6-methyl-5-oxo-2-propan-2-yl-2,6,9,11-tetrazabicyclo[5.4.0]undeca-7,9,11-trien-10-yl)amino]-N-(1-methyl-4-piperidyl)benzamide], for which, for the setting “HT-29, 24 h, HT29 cells”, the IC50 is less than 30 µM.

With `COc1cc(C(=O)NCC2(CN3CCCC3)CC2)c(F)cc1Nc1ncc2c(n1)N(C1CCCC1)CC1(CC1)C(=O)N2C` [Example 405, 4-(9′-cyclopentyl-5′-methyl-6′-oxo-5′,6′,8′,9′-tetrahydrospiro[cyclopropane-1,7′-pyrimido[5,4-b][1,4]diazepine]-2′-ylamino)-2-fluoro-5-methoxy-N-[[1-(pyrrolidin-1-ylmethyl)cyclopropyl]methyl]benzamide], for the setting “HT-29, 24 h, HT29 cells”, the IC50 is less than 1 µM.

For the compound `COc1cc(C(=O)NCCN2CCCC2)ccc1Nc1ncc2c(n1)N(C1CCCC1)CC1(CC1)C(=O)N2C` [Example 384, 4-(9′-cyclopentyl-5′-methyl-6′-oxo-5′,6′,8′,9′-tetrahydrospiro[cyclopropane-1,7′-pyrimido[5,4-b][1,4]diazepine]-2′-ylamino)-3-methoxy-N-(2-pyrrolidin-1-ylethyl)benzamide], where the note is “HT-29, 24 h, HT29 cells”, the IC50 is less than 0.3 µM.

For `COc1cc(C(=O)N[C@@H]2CCN(C)C2)c(F)cc1Nc1ncc2c(n1)N(C1CCCC1)CC1(CC1)C(=O)N2C` [Example 399, 4-(9′-cyclopentyl-5′-methyl-6′-oxo-5′,6′,8′,9′-tetrahydrospiro[cyclopropane-1,7′-pyrimido[5,4-b][1,4]diazepine]-2′-ylamino)-2-fluoro-5-methoxy-N-[(3R)-1-methylpyrrolidin-3-yl]benzamide], for the setting “HT-29, 24 h, HT29 cells”, the IC50 is less than 0.3 µM.

With `COc1cc(C(=O)NC2CCN(C)C3CCCCC23)ccc1Nc1ncc2c(n1)N(C1CCCC1)CCC(=O)N2C` (single isomer, unassigned) [Example 342, 4-[(2-cyclopentyl-6-methyl-5-oxo-2,6,9,11-tetrazabicyclo[5.4.0]undeca-7,9,11-trien-10-yl)amino]-3-methoxy-N-(1-methyl-3,4,4a,5,6,7,8,8a-octahydro-2H-quinolin-4-yl)benzamide], under “HT-29, 24 h, HT29 cells”, the 50% inhibitory concentration (IC50) was less than 0.3 µM.

Take `CN1C(=O)C2(CC2)CN(C2CCCC2)c2nc(Nc3ccc(C(=O)NC4C[C@H]5CCC[C@@H](C4)N5C)cc3Cl)ncc21` (stereo partly drawn) [Example 402, 3-chloro-4-(9′-cyclopentyl-5′-methyl-6′-oxo-5′,6′,8′,9′-tetrahydrospiro[cyclopropane-1,7′-pyrimido[5,4-b][1,4]diazepine]-2′-ylamino)-N-[(1S,5R)-9-methyl-9-azabicyclo[3.3.1]non-7-yl]benzamide]: the concentration for half-maximal inhibition (IC50) (HT-29, 24 h, HT29 cells) was less than 0.3 µM.

For `COc1cc(C(=O)NC2CCC(N3CCC3)CC2)ccc1Nc1ncc2c(n1)N(C1CCCC1)CC(C)(C)C(=O)N2C` (stereo not drawn) [Example 374, N-[4-(azetidin-1-yl)cyclohexyl]-4-[(2-cyclopentyl-4,4,6-trimethyl-5-oxo-2,6,9,11-tetrazabicyclo[5.4.0]undeca-7,9,11-trien-10-yl)amino]-3-methoxy-benzamide], the IC50 (HT-29, 24 h, HT29 cells) is less than 0.3 µM.

With `COc1cc(C(=O)NCCN2CCCC2)c(F)cc1Nc1ncc2c(n1)N(C1CCCC1)CCC(=O)N2C` [Example 333, 4-[(2-cyclopentyl-6-methyl-5-oxo-2,6,9,11-tetrazabicyclo[5.4.0]undeca-7,9,11-trien-10-yl)amino]-2-fluoro-5-methoxy-N-(2-pyrrolidin-1-ylethyl)benzamide], the IC50 (HT-29, 24 h, HT29 cells) was less than 0.3 µM.

As for `CC(C)N1CC2(CC2)C(=O)N(C)c2cnc(Nc3cc(F)c(C(=O)N[C@@H]4CCN(C)C4)cc3Cl)nc21` [Example 310, (R)-5-chloro-2-fluoro-4-(9′-isopropyl-5′-methyl-6′-oxo-5′,6′,8′,9′-tetrahydrospiro[cyclopropane-1,7′-pyrimido[5,4-b][1,4]diazepine]-2′-ylamino)-N-(1-methylpyrrolidin-3-yl)benzamide], the IC50 (HT-29, 24 h, HT29 cells) was less than 1 µM.

As for `CN1CCC(NC(=O)c2ccc(Nc3ncc4c(n3)N(C3CCCC3)CCC(=O)N4C)cc2)CC1` [Example 2, 4-[(2-cyclopentyl-6-methyl-5-oxo-2,6,9,11-tetrazabicyclo[5.4.0]undeca-8,10,12-trien-10-yl)amino]-N-(1-methyl-4-piperidyl)benzamide], where the note is “HT-29, HT29 cells, 24 h”, the IC50 was less than 0.3 µM.

As to `CCN1CCC(NC(=O)c2cc(OC)c(Nc3ncc4c(n3)N(C3CCCC3)CC(CC)(CC)C(=O)N4C)cc2F)CC1` [Example 379, 4-[(2-cyclopentyl-4,4-diethyl-6-methyl-5-oxo-2,6,9,11-tetrazabicyclo[5.4.0]undeca-7,9,11-trien-10-yl)amino]-N-(1-ethyl-4-piperidyl)-2-fluoro-5-methoxy-benzamide], the IC50 (HT-29, 24 h, HT29 cells) was less than 0.3 µM.

Take `CN1CCC(NC(=O)c2cc(F)c(Nc3ncc4c(n3)N(C3CCCC3)CC3(CC3)C(=O)N4C)cc2F)CC1` [Example 396, 4-(9′-cyclopentyl-5′-methyl-6′-oxo-5′,6′,8′,9′-tetrahydrospiro[cyclopropane-1,7′-pyrimido[5,4-b][1,4]diazepine]-2′-ylamino)-2,5-difluoro-N-(1-methyl-4-piperidyl)benzamide]: under “HT-29, 24 h, HT29 cells”, the IC50 is less than 0.3 µM.

As to `CN1C(=O)C(C)(C)CN(C2CCCC2)c2nc(Nc3ccc(C(=O)NCC(C)(C)CN4CCCC4)cc3Cl)ncc21` [Example 367, 3-chloro-4-[(2-cyclopentyl-4,4,6-trimethyl-5-oxo-2,6,9,11-tetrazabicyclo[5.4.0]undeca-7,9,11-trien-10-yl)amino]-N-(2,2-dimethyl-3-pyrrolidin-1-yl-propyl)benzamide], for the setting “HT-29, 24 h, HT29 cells”, the concentration for half-maximal inhibition (IC50) is less than 0.3 µM.
